{"source": "patent US20190015400A1", "about": "“Antifungal Compositions” (priority 2017, published 2019)", "key": {"[1]": {"test_system": "C. albicans ATCC 64124 (strain F) biofilm", "test": "Biofilm disruption assay (XTT, SMIC99), azoles + compound 2", "format": "cell-based, Candida albicans", "method": "In order to investigate the synergistic effect of azoles and our compounds on inhibiting biofilm formation of C. albicans ATCC 64124 (strain F), we performed a biofilm disruption assay in a checkerboard setup and used XTT [2,3-bis(2-methoxy-4-nitro-5-sulfophenyl)-2H-tetrazolium-5-carboxanilide] reduction to examine the metabolic activity of the biofilm. Briefly, C. albicans ATCC 64124 (strain F) was grown overnight in YEPD broth at 35° C. The culture was then diluted to an OD600 of 0.12 (equivalent to 1×10^6 CFU/mL) and 100 μL was placed into each well of a 96-well plate. The cells were incubated at 37° C. for 24 h for growth. The following day, the spent medium containing planktonic cells was aspirated and each wells were carefully washed three times with sterile phosphate buffer saline (PBS). […] The negative control (medium only) and the positive control (biofilm plus medium) wells were also included in the same 96-well plate. The plates were then incubated at 37° C. statically for additional 24 h and then washed with sterile PBS. 100 μL of a XTT (0.5 mg/mL)/menadione (1 μM) solution was added to each well, covered with aluminum foil, and incubated for 2 h at 37° C. Then, 80 μL of the colored supernatant from each well was transferred to a new 96-well plate, and the absorption was read at OD490. The percent metabolic activity of the formed biofilm at various drug concentration combinations was calculated by dividing the metabolic activity of biofilm formed for that well by that of the biofilm formed in the growth control well (in the absence of any drug). For these experiments, the sessile MIC (SMIC99) was determined, which is defined as the drug concentration required to inhibit the metabolic activity of biofilm by 99% compared to the growth control. The assay for each combination was performed in duplicates."}, "[2]": {"test_system": "13 Candida spp. strains (strains A-M)", "test": "MIC and checkerboard assay, azoles + antihistamines, panel", "format": "cell-based", "method": "Determination of minimum inhibitory concentration (MIC) values. MIC values were recorded for all antifungals and antihistamines in order to determine the concentration range of compounds to be used in the checkerboard assays.\nThe MIC assays were done using the broth microdilution method as described in CLSI document M27-A3 with minor modifications. Yeast cultures were started by picking a colony from a PDA plate stored at 4° C. The colonies were grown in YEPD medium overnight at 35° C. with shaking at 200 rpm. In a 96-well plate compounds were diluted lengthwise along the plate in serial 2-fold dilutions in the RPMI 1640 medium. The yeast cultures were diluted in RPMI 1640 medium to an OD600 within the range of 0.12 and 0.15 (˜1×10^6 cells/mL). The fungal cells were further diluted by taking 25 μL of fungal cells and adding them to 10 mL of RPMI 1640 medium before adding 100 μL to plate (200 μL total volume). The plates were incubated at 35° C. for 48 h. Visual inspection of the wells for no growth was used to determine the MIC. All compounds were tested in duplicate (TABLES 6 and 7).\nCheckerboard assays were done as previously described to determine the fractional inhibitory concentration index (FICI). 2-fold dilutions of the azole drug were made in RPMI 1640 medium lengthwise along the plate. […] The FICI was calculated based on the formula below. […]"}}, "data": [{"compound": "CC[C@@H]([C@H](C)O)n1ncn(-c2ccc(N3CCN(c4ccc(OC[C@@H]5CO[C@@](Cn6cncn6)(c6ccc(F)cc6F)C5)cc4)CC3)cc2)c1=O", "note": "[POS, posaconazole]", "values": [{"measurement": "SMIC alone (μg/mL) Azole", "setting": "[1]; azole alone, sessile cells", "result": ">32", "unit": "µg/mL"}, {"measurement": "SMIC combo (μg/mL) Azole", "setting": "[1]; azole in combination with compound 2", "result": 0.5, "unit": "µg/mL"}, {"measurement": "MIC", "setting": "[2]; Candida, drug alone against sensitive fungal strains", "result": "0.25 to 1", "unit": "µg/mL"}, {"measurement": "MIC in synergistic combinations", "setting": "[2]; synergistic POS + EBA combinations, MIC of the labelled drug", "result": "8 to 500", "unit": "ng/mL"}]}]}
